Assay results published in US10960054B2, “Fracture targeted bone regeneration through parathyroid hormone receptor stimulation” (Purdue Research Foundation, priority 2016, dated 2021).

Experiments:
PTHR1 (R^0 conformation) = target: T1, PTHR1 (R^0 conformation) (Homo sapiens, UniProt Q03431); conditions: direct comparative studies; cited from earlier work
T1 sequence (Q03431 27-593): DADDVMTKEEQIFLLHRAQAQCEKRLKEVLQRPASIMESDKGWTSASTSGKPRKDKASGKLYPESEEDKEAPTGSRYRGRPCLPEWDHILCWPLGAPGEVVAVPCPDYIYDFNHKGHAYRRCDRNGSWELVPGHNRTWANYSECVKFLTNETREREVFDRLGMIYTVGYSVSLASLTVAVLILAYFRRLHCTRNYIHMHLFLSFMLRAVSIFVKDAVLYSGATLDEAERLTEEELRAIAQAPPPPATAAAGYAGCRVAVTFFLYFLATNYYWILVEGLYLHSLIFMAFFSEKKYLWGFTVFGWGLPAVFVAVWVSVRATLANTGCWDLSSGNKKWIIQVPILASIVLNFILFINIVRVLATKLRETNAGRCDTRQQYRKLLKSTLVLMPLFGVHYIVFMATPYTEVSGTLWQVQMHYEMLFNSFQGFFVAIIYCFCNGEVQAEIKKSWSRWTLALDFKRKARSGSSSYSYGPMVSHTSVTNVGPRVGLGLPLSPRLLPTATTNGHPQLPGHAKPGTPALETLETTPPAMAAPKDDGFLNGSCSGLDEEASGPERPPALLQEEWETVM

PTHR1 = target: T2, PTHR1 (Homo sapiens, UniProt Q03431); conditions: time-course washout assay; cited from earlier work
T2 sequence (Q03431 27-593): T1 sequence (Q03431 27-593)

femoral fracture callus = experiment: Murine stabilized femoral fracture, microCT analysis of fracture callus; type: in vivo, mice; conditions: for fracture callus densities / bone volume: 3 nmol/kg/day subcutaneous, 14, 28 or 56 days, FIG. 7
MC3T3E1 cells = experiment: Gene expression ratio of bone markers in MC3T3E1 cells; type: cell-based
Experimental: (§1) Referring now to FIG. 4, alkaline phosphatase (ALP) expression ratio for both targeted and non-targeted PTHrP were analyzed in MC3T3E1 cells. The ALP ratio is calculated by (Treated ALP expression/Vehicle control ALP expression). Higher expression levels are associated with greater osteoblast activity and is a key protein involved in bone mineralization.
as §1, with “5, osteopontin (OPN)” for “4, alkaline phosphatase (ALP)”, “OPN” for “ALP”
Referring now to FIG. 6, gene expression ratio of several key bone markers for both targeted and non-targeted PTHrP were analyzed in MC3T3E1 cells. Activity markers include alkaline phosphatase (ALP), Collagen I-alpha (Col1-alpha), osteocalcin (OC), osteoprotegerin (OPG), osteopontin (OPN, and Osterix (OSX). The gene expression ratio is calculated by (Treated gene expression/Vehicle control gene expression). The targeted PTHrP has activity as low as 1 pM.

liver and kidneys = experiment: Blind histopathology of liver and kidney after 28 days of treatment; conditions: 31 nmol/kg/day subcutaneous
Experimental: Referring now to Table 1, mice were treated with 31 nmol/kg/day subcutaneous injections of PTHrPD10 (“Targeted Drug”) or saline. Swiss ND4 mice were treated for 28 days. Mice were sacrificed at the end of the study and liver and kidneys were excised. Organs were fixed in formalin and paraffin sections were made from each. A veterinary pathologist performed a randomized blind analysis on the organs.

SVSEIQLMHNLGKHLNSMERVEWLRKKLQDVHNF [PTH(1-34)]
affinity for the R^0 state (PTHR1 (R^0 conformation)): much higher affinity for R^0 than PTHrP(1-36) | duration of the cAMP response (PTHR1): more prolonged response than PTHrP(1-36)

SVSEIQLMHNLGKHLNSMERVEWLRKKLQDVHNFVALGAPLAPRDADDDDDDDDDD (PTH1-46D10) [PTH 1-46D10]
bone density (microCT) (femoral fracture callus; 2 weeks, fracture callus, vs saline, FIG. 3): statistically denser than saline controls

VSEHQLLHDKGKSIQDLRRRFFLHHLIAEIHTAGIRATSEVSPNSDDDDDDDDDD [PTHrP1-46D10]
concentration at which gene expression activity is seen (activity as low as) (MC3T3E1 cells; ALP, Col1-alpha, OC, OPG, OPN, OSX, FIG. 6): ≤ 1 pM | osteopontin (OPN) expression ratio (MC3T3E1 cells; treated/vehicle control, FIG. 5): does not reduce the efficacy of the drug | alkaline phosphatase (ALP) expression ratio (MC3T3E1 cells; treated/vehicle control, standardized to GAPDH, FIG. 4): does not reduce the efficacy of the drug | fracture callus densities / bone volume (femoral fracture callus; listed as targeted PTHrP): Greater densities can be observed in the targeted PTHrP over the free PTHrp at every time point | fracture callus densities / bone volume (femoral fracture callus; listed as targeted drug): not only improves fracture healing but that it also accelerates fracture healing | bone densities around fractures (microCT) (femoral fracture callus; 31 nmol/kg/day, daily for 4 weeks, closed femoral fracture, FIG. 1): increased bone densities around fractures significantly higher than that of free PTHrP and Saline | trabecular spacing (microCT) (femoral fracture callus; 4 weeks, fracture callus, vs saline, FIG. 2): statistically tighter spacing than does the saline control | toxicity, overall pathologist assessment of liver and kidney (liver and kidneys): No detectable toxicity was observed
